# Measured values: publication PMC6148296 (Scientific Reports, 2018)
# Several values for one entry are separate records, joined by “and”; a condition that tells them apart may be missing. Equal values may be shown once. Entries after “also recorded” stand apart in the source; their conditions may differ. Read-outs that look alike come from different tables or passages of the source. Marks after values point to notes of the source that are not given here.
# Tests used:
# rat μ-opioid receptor [1] = target: T1, rat μ-opioid receptor (Rattus norvegicus, UniProt P33535); test: [35S]GTPγS binding assay, MOR; type: biochemical; settings: for functional profile at μ opioid receptor: G protein activation; for Kb: read-out: Antagonist activity MOR Ke
# T1 construct: expressed in transfected cells; membranes prepared
# rat μ-opioid receptor [2] = target: T1, rat μ-opioid receptor; test: Receptor binding assay, [3H]DAMGO competition
# rat δ-opioid receptor [3] = target: T2, rat δ-opioid receptor (Rattus norvegicus, UniProt P33533); test: Receptor binding assay, [3H]DPDPE competition; settings: read-out: δ binding affinity Ki
# T2 construct: expressed in transfected cells; membranes prepared
# human κ-opioid receptor [4] = target: T3, human κ-opioid receptor (Homo sapiens, UniProt P41145); test: Receptor binding assay, [3H]U69593 competition; settings: CHO cell membranes, 1.5 nM [3H]U69593; read-out: κ binding affinity Ki
# T3 construct: expressed in transfected cells; membranes prepared
# human κ-opioid receptor [5] = target: T3, human κ-opioid receptor; test: [35S]GTPγS binding assay, KOR; type: biochemical
# rat δ-opioid receptor [6] = target: T2, rat δ-opioid receptor; test: [35S]GTPγS binding assay, DOR; type: biochemical; settings: read-out: Agonist activity DOR Emax (agonist efficacy at 10 μM)
# mice [7] = test: Hot plate test; type: in vivo
# Method: (§1) Kunming strain male and female mice weighing 20 to 24 g were obtained from the Laboratory Animal Center, Chinese Academy of Sciences (Shanghai, China). Mice were housed in groups in a room maintained in a 12/12 h light/dark cycle in a temperature controlled environment with free access to food and water. All research protocols were approved by the Animal Care and Use Committee of Shanghai Institute of Materia Medica, Chinese Academy of Sciences. All experimental procedures were in strict accordance with the National Institutes of Health Guide for the Care and Use of Laboratory Animals.
# Hot plate test was performed according to the method described previously[31],[34],[35]. Briefly, mice were placed on a 55 °C heated surface, the latency to licking or jumping was recorded. The cut-off time of 60 s was used to minimize tissue damage. Before formal study, the nociceptive response of each mouse was measured three times, and the mean of the 2nd and 3rd responses was used as pre-drug latency. The mouse not responding within 20 s was excluded. The percentage antinociception was calculated as 100× [(test latency-predrug latency)/(cut-off time -predrug latency)].
# mice [8] = test: Abdominal constriction test; type: in vivo; settings: for effect of Dezocine on morphine-induced antinociception: 0.05 mg/kg Dezocine; for ED50: Mus musculus; for effect of antagonist pretreatment on Dezocine-produced antinociception: antagonist 20 mg/kg i.p., 24 h before 0.25 mg/kg Dezocine
# mice [9] = test: Formalin test; type: in vivo; settings: for ED50: Mus musculus, 0.25 h
# Method: as §1
# The formalin test was performed according to our previous work[35]. In brief, the amount of time that mice spent licking or flinching the injected hind paw was recorded after injected with 20 μl 1.0% formalin at the plantar surface of the right hind paw. The mice were observed fro 60 min. The first 10 min was recorded as the phase I, and the rest of time was recorded as phase II. Percentage of analgesia was calculated as 100× (time of control – time of drug)/time of control.
# mice [10] = test: Rotorod test (sedation); type: in vivo; settings: for sedative effect, rotarod test: 15 min after injection
# mice [11] = system: mice; design: method as in PMID 18353307, PMID 25816912; settings: 95% confidence limits in parentheses; cited from earlier work
# mice [12] = system: mice; design: method as in PMID 18353307, PMID 25816912; settings: 95% confidence limits in parentheses; cited from earlier work; remark: listed apart in the source
# mice [13] = system: mice; design: method as in PMID 18353307, PMID 25816912; settings: 95% confidence limits in parentheses; cited from earlier work; remark: listed apart in the source
# [14] = mice, 15 min after drug administration, 95% confidence limits in parentheses
structure (smiles),measurement,setting,value
"C[C@@H](NC(=O)[C@@H](N)Cc1ccc(O)cc1)C(=O)NCC(=O)N(C)[C@@H](Cc1ccccc1)C(=O)NCCO [DAMGO, [D-Ala2,N-Me-Phe4,Gly5-ol]-enkephalin]",Emax,"rat μ-opioid receptor [1]; 0.1 nM [35S]GTPγS, percentage of stimulated binding over basal, read-out: Agonist activity MOR Emax",241 ± 33.8%
same,functional profile at μ opioid receptor,rat μ-opioid receptor [1],full agonist efficacy
C[C@@]12CCCCC[C@@H](Cc3ccc(O)cc31)[C@@H]2N [Dezocine],selectivity for μ over δ opioid receptors,rat μ-opioid receptor [2]; from Ki values,273 fold
same,selectivity for μ over κ opioid receptors,rat μ-opioid receptor [2]; from Ki values,15 fold
same,Ki,rat μ-opioid receptor [2]; read-out: µ binding affinity Ki,1.46 ± 0.1 nM
same,Ki,rat δ-opioid receptor [3],399 ± 43.3 nM
same,Ki,human κ-opioid receptor [4],22 ± 1.52 nM
same,functional profile at μ opioid receptor,rat μ-opioid receptor [1],μ partial agonist
same,Emax at 10 µM,rat μ-opioid receptor [1]; read-out: Agonist activity MOR Emax (agonist efficacy at 10 μM),45.8 ± 1.1%
same,Kb,rat μ-opioid receptor [1],10.4 ± 4.9 nM
same,Kb,"rat μ-opioid receptor [1]; rightward shift of DAMGO concentration-response curve, single dose method",10.4 nM
same,functional profile at κ opioid receptor,human κ-opioid receptor [5]; G protein activation,κ partial agonist
same,Agonist activity KOR Emax (agonist efficacy at 10 μM),"human κ-opioid receptor [5]; at 10 μM, % of the maximal stimulation obtained with U50,488 H",33.6 ± 2.4^d %
same,Emax at 10 µM,"human κ-opioid receptor [5]; read-out: Agonist activity KOR Emax (agonist efficacy at 10 μM), at 10 μM, % of the maximal stimulation obtained with U50,488 H",33 to 45%
same,Kb,"human κ-opioid receptor [5]; rightward shift of U50,488 H concentration-response curve, single dose method, read-out: Antagonist activity KOR Ke",324.1 nM and 324 nM
same,Emax at 10 µM,rat δ-opioid receptor [6],26.1 ± 1%
same,"maximal antinociceptive effect, hot-plate test","mice [7]; at 7.5 mg/kg, bell-shaped dose-response curve",around 60%
same,duration of consistent high (close to peak) antinociceptive response,"mice [7]; hot-plate test, time course",up to 1 h
same,onset of antinociceptive action,"mice [7]; hot-plate test, time course",5 min
same,"maximal antinociception, hot-plate test, whatever the route of administration","mice [7]; i.v., s.c., or p.o.",around 55%
same,effect of Dezocine on morphine-induced antinociception,mice [8]; 0.3 mg/kg morphine,did not affect
same,effect of Dezocine on morphine-induced antinociception,"mice [8]; 0.4 mg/kg morphine, p < 0.05",significantly decreased; also recorded: significantly inhibited
same,effect of Dezocine co-administration on morphine antinociception,mice [8]; 0.125 mg/kg Dezocine and 0.3 mg/kg morphine,produced higher antinociception than morphine used alone
same,"effect of Dezocine on U50,488H-induced antinociception","mice [8]; Dezocine pretreatment, U50,488 H 1.2 mg/kg i.p., without β-FNA",did not inhibit; also recorded: did not affect
same,ED50,"mice [8]; 0.25 h, mice, 15 min after drug administration, 95% confidence limits in parentheses, read-out: Antinociception ED50 Abdominal constriction test",0.2 mg/kg
same,ED50,"mice [8]; summary over abdominal constriction and formalin tests, read-out: ED50 values of Dezocine-induced antinociception",0.2 to 0.4 mg/kg
same,"potency relative to morphine, abdominal constriction test",mice [8]; ratio of ED50 values,4 fold
same,"effect of Dezocine on U50,488H-induced antinociception in the presence of β-FNA","mice [8]; β-FNA pretreatment, U50,488 H 1.2 mg/kg i.p., p < 0.05",significantly decreased
same,ED50,"mice [9]; mice, 15 min after drug administration, 95% confidence limits in parentheses, read-out: Antinociception ED50 Formalin test Phase I",0.4 mg/kg
same,ED50,"mice [9]; mice, 15 min after drug administration, 95% confidence limits in parentheses, read-out: Antinociception ED50 Formalin test Phase II",0.4 mg/kg
same,Antinociception ED50 Formalin test Phase I,mice [9]; [14],0.4 (0.2–1.0) mg/kg
same,Antinociception ED50 Formalin test Phase II,mice [9]; [14],0.4 (0.2–0.9) mg/kg
same,"potency relative to morphine, formalin test phase I",mice [9]; ratio of ED50 values,approximately 13 fold
same,"potency relative to morphine, formalin test phase II",mice [9]; ratio of ED50 values,9 fold
same,"sedative effect, rotarod test","mice [10]; 2.5 mg/kg, trend, p = 0.0881",did not reach significant difference
same,"sedative effect, rotarod test","mice [10]; 5 mg/kg, p < 0.05 vs saline",produced significant sedation
same,"sedative effect, rotarod test",mice [10]; 7.5 and 25 mg/kg,the sedative effect diminished
same,dose that produced sedative side effects (ceiling effect),mice [10]; rotarod test,5 mg/kg
"Oc1ccc2c3c1O[C@H]1c4[nH]c5c(c4C[C@@]4(O)[C@@H](C2)N(CC2CC2)CC[C@]314)C[C@@]1(O)[C@H]2Cc3ccc(O)c4c3[C@@]1(CCN2CC1CC1)[C@H]5O4 [nor-BNI, nor-binaltorphimine]",effect of antagonist pretreatment on Dezocine-produced antinociception,mice [8]; p < 0.05,significantly decreased
"COC(=O)/C=C/C(=O)N[C@@H]1CC[C@@]2(O)[C@H]3Cc4ccc(O)c5c4[C@@]2(CCN3CC2CC2)[C@H]1O5 [β-FNA, β-funaltrexamine]",effect of antagonist pretreatment on Dezocine-produced antinociception,mice [8]; p < 0.05,significantly decreased
CN1CC[C@]23c4c5ccc(O)c4O[C@H]2[C@@H](O)C=C[C@H]3[C@H]1C5 [Morphine],Antinociception ED50 Hot plate test,mice [11],6.9 (5.6–8.5)^a mg/kg
same,Antinociception ED50 Abdominal constriction test,mice [12],0.8 (0.5–1.2)^a mg/kg
same,Antinociception ED50 Formalin test Phase I,mice [13],5.1 (4.3–5.9)^b mg/kg
same,Antinociception ED50 Formalin test Phase II,mice [13],3.1 (2.8–3.3)^b mg/kg
